Results as given in patent US20250082633A1, “COMPOUNDS AND METHODS FOR MODULATING SPLICING” (REMIX THERAPEUTICS INC., priority 2021, published 2025).
Counter-ions that a name gives are not always drawn. Like-named read-outs stand apart in the source and are kept apart here.

What was measured:
MYB mRNA = assay: RT-qPCR splicing assay, MYB canonical (CJ) and alternative (AJ) junction mRNA; assay type: cell-based; conditions: Homo sapiens; for IC50: read-out: MYB CJ IC50; for AC50: read-out: MYB AJ AC50
Outline: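 Splice-junction mRNAs (CJ, AJ) measured by TaqMan one-step RT-qPCR on cell lysates, using PPIA as reference for adherent A673 and GAPDH or GUSB for K562. Cells exposed for 24 h to 11 threefold concentrations up to 10 uM final, with DMSO at or below 0.25%.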

K562 cells = assay: Cell Titer Glo 2.0 cell viability assay; assay type: cell-based; conditions: Homo sapiens, 500 cells/well, 72 hours
Outline: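 K562 cells (500/well) in IMDM with 10% FBS were exposed to serially diluted compounds at 0.1% DMSO final. After 72 h at 37° C, 5% CO2, viability was read by CellTiter-Glo 2.0 luminescence, with medium-only blanks.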

[1] = decrease in CJ mRNA levels, larger panel of genes, Table 3
[2] = decrease in canonical junction mRNA, A673 or K562 cells, 24 hours treatment, Table 2
[3] = increase in alternative junction mRNA, A673 or K562 cells, 24 hours treatment, Table 2

SMILES | IC50 (MYB mRNA; [1]) [nM] | IC50 (MYB mRNA; [2]) [nM] | GI50 (K562 cells) [nM] | AC50 (MYB mRNA; [3]) [nM] | AC50 (MYB mRNA; 24 h) [nM] | IC50 (MYB mRNA; 24 h) [nM] | IC50 (MYB mRNA) [nM]
Fc1cc(-c2ccc3ncccc3c2)cc2cn(C3CCNCC3)nc12 [Compound 162, 6-[7-fluoro-2-(4-piperidyl)indazol-5-yl]quinoline] | > 10000 | > 10000 | 1000 to 10000 | > 10000 | – | – | –
Cc1cn2nc(-c3cc(F)c4nn(C5CCN(CCO)C6(CC6)C5)cc4c3)cc(C)c2n1 (centres unmarked) [Compound 180, 2-[7-[5-(2,8-dimethylimidazo[1,2-b]pyridazin-6-yl)-7-fluoro-indazol-2-yl]-4-azaspiro[2.5]octan-4-yl]ethanol] | – | – | 100 to 1000 | – | 100 to 1000 | 100 to 1000 | 100 to 1000
Cc1nc2c(C)cc(-c3cc(F)c4nn(C5CCNCC5)cc4c3)cc2o1 [Compound 137, 6-[7-fluoro-2-(4-piperidyl)indazol-5-yl]-2,4-dimethyl-1,3-benzoxazole] | 100 to 1000 | 100 to 1000 | 100 to 1000 | 100 to 1000 | – | – | –
Cc1c(O)c(-c2ccc3nn(C4CCNCC4)nc3n2)cc2cn(C)nc12 [Compound 113, 2,7-dimethyl-5-[2-(4-piperidyl)triazolo[4,5-b]pyridin-5-yl]indazol-6-ol] | > 10000 | > 10000 | 1000 to 10000 | > 10000 | – | – | –
Cc1cn2nc(-c3cc(F)c4nn(C5CCN(C6CCC6)C6(CC6)C5)cc4c3)cc(C)c2n1 (centres unmarked) [Compound 186, 6-[2-(4-cyclobutyl-4-azaspiro[2.5]octan-7-yl)-7-fluoro-indazol-5-yl]-2,8-dimethyl-imidazo[1,2-b]pyridazine] | – | – | 100 to 1000 | – | 100 to 1000 | 100 to 1000 | 100 to 1000
COc1cc(-c2cc3cn(C)nc3cc2O)nc2cn(C3CCNCC3)nc12 [Compound 140, 5-[7-methoxy-2-(4-piperidyl)pyrazolo[4,3-b]pyridin-5-yl]-2-methyl-indazol-6-ol] | 1000 to 10000 | 1000 to 10000 | > 10000 | 1000 to 10000 | – | – | –
Cc1cc(-n2cc3cc(N4CCNCC4)cc(F)c3n2)cc2cn(C)nc12 [Compound 117, 2-(2,7-dimethylindazol-5-yl)-7-fluoro-5-piperazin-1-yl-indazole] | > 10000 | > 10000 | 1000 to 10000 | 1000 to 10000 | – | – | –
Cn1cc2cc(-c3cc(F)c4nn(C5CCNCC5)nc4c3)cc(F)c2n1 [Compound 103, 4-fluoro-6-(7-fluoro-2-methyl-indazol-5-yl)-2-(4-piperidyl) benzotriazole] | 1000 to 10000 | 1000 to 10000 | 1000 to 10000 | 1000 to 10000 | – | – | –
Cn1cc2cc(-c3cc(F)c4nn(C5CCNCC5)cc4c3)ccc2n1 [Compound 145, 7-fluoro-5-(2-methylindazol-5-yl)-2-(4-piperidyl)indazole] | 1000 to 10000 | 1000 to 10000 | 1000 to 10000 | 100 to 1000 | – | – | –
Cc1cn2nc(-c3cc(F)c4nn(C5CCN(CCO)CC5)cc4c3)cc(C)c2n1 [Compound 160, 2-[4-[5-(2,8-dimethylimidazo[1,2-b]pyridazin-6-yl)-7-fluoro-indazol-2-yl]-1-piperidyl]ethanol] | – | – | 100 to 1000 | – | 100 to 1000 | 100 to 1000 | 100 to 1000
Cc1cn2nc(-c3cc4cn(C5CCNCC5)nc4cn3)cc(C)c2n1 [Compound 147, 2,8-dimethyl-6-[2-(4-piperidyl)pyrazolo[3,4-c]pyridin-5-yl]imidazo[1,2-b]pyridazine] | 100 to 1000 | 100 to 1000 | 100 to 1000 | 100 to 1000 | – | – | –

More lines, main results first:

IC50 (MYB mRNA; [1]) [nM] | IC50 (MYB mRNA; [2]) [nM] | GI50 (K562 cells) [nM] | SMILES | AC50 (MYB mRNA; [3]) [nM] | AC50 (MYB mRNA; 24 h) [nM] | IC50 (MYB mRNA; 24 h) [nM] | IC50 (MYB mRNA) [nM]
100 to 1000 | 100 to 1000 | 1000 to 10000 | Cn1cc2cc(-c3ccc4nn(C5CCNCC5)cc4n3)c(O)cc2n1 [Compound 110, 2-methyl-5-[2-(4-piperidyl)pyrazolo[4,3-b]pyridin-5-yl]indazol-6-ol] | 100 to 1000 | – | – | –
100 to 1000 | 100 to 1000 | 100 to 1000 | COc1cc(-c2cc(C)c3nc(C)cn3n2)cc2cn(C3CCNCC3)nc12 [Compound 155, 6-(7-methoxy-2-(piperidin-4-yl)-2H-indazol-5-yl)-2,8-dimethylimidazo [1,2-b]pyridazine] | 100 to 1000 | – | – | –
1000 to 10000 | 1000 to 10000 | > 10000 | Cc1ccc2nc(-c3cc(F)c4nn(C5CCNCC5)cc4c3)ccc2n1 [Compound 157, 2-[7-fluoro-2-(4-piperidyl)indazol-5-yl]-6-methyl-1,5-naphthyridine] | > 10000 | – | – | –
> 10000 | > 10000 | > 10000 | COc1cc2nn(C3CCNCC3)cc2cc1-c1cc(C)c2nc(C)cn2n1 [Compound 159, 6-(6-methoxy-2-(piperidin-4-yl)-2H-indazol-5-yl)-2,8-dimethylimidazo[1,2-b]pyridazine] | > 10000 | – | – | –
100 to 1000 | 100 to 1000 | 100 to 1000 | Cn1cc2cc(-c3cc(F)c4nn(C5CCNCC5)cc4c3)cc(C#N)c2n1 [Compound 130, 5-[7-fluoro-2-(4-piperidyl)indazol-5-yl]-2-methyl-indazole-7-carbonitrile] | 100 to 1000 | – | – | –
100 to 1000 | 100 to 1000 | 100 to 1000 | Cn1cc2cc(-c3cc(F)c4nn(C5CCNC6(CC6)C5)cc4c3)cc(F)c2n1 (centres unmarked) [Compound 108, 2-(4-azaspiro[2.5]octan-7-yl)-7-fluoro-5-(7-fluoro-2-methyl-indazol-5-yl)indazole] | 1000 to 10000 | – | – | –
100 to 1000 | 100 to 1000 | 100 to 1000 | Cc1cn2nc(-c3cc(F)c4nn([C@@H]5CCNC[C@H]5F)cc4c3)cc(C)c2n1 [Compound 168, 6-(7-fluoro-2-((3R,4R)-3-fluoropiperidin-4-yl)-2H-indazol-5-yl)-2,8-dimethylimidazo [1,2-b]pyridazine] | 100 to 1000 | – | – | –
> 10000 | > 10000 | 1000 to 10000 | COC1=C(C)C2N=C(C)OC2C=C1c1cc(F)c2nn(C3CCNCC3)cc2n1 (centres unmarked) [Compound 144] | > 10000 | – | – | –
1000 to 10000 | 1000 to 10000 | 1000 to 10000 | Cc1cn2nc(-c3cc(O)c4nn(C5CCNCC5)cc4c3)cc(C)c2n1 [Compound 156, 5-(2,8-dimethylimidazo[1,2-b]pyridazin-6-yl)-2-(piperidin-4-yl)-2H-indazol-7-ol] | 1000 to 10000 | – | – | –
100 to 1000 | 100 to 1000 | 100 to 1000 | Cc1cn2cc(-c3cc(F)c4nn(C5CCNCC5)cc4c3)cc(Cl)c2n1 [Compound 127, 5-(8-chloro-2-methylimidazo[1,2-a]pyridin-6-yl)-7-fluoro-2-(piperidin-4-yl)-2H-indazole hydrochloride salt] | 100 to 1000 | – | – | –
> 10000 | > 10000 | > 10000 | Cc1c(O)c(-c2cc(F)c3nn(C4CCNCC4)cc3c2)cc2cn(C)nc12 [Compound 126, 5-[7-fluoro-2-(4-piperidyl)indazol-5-yl]-2,7-dimethyl-indazol-6-ol] | > 10000 | – | – | –
> 10000 | > 10000 | 1000 to 10000 | Cc1cn2nc(-n3cc4cc(C5CCNCC5)cc(F)c4n3)cc(C)c2n1 [Compound 120, 6-[7-fluoro-5-(4-piperidyl)indazol-2-yl]-2,8-dimethyl-imidazo[1,2-b]pyridazine] | 1000 to 10000 | – | – | –
100 to 1000 | 100 to 1000 | 100 to 1000 | Cc1cn2nc(-c3cc(F)c4nn(CC5CCNCC5)cc4c3)cc(C)c2n1 [Compound 212, 6-[7-fluoro-2-(4-piperidylmethyl)indazol-5-yl]-2,8-dimethyl-imidazo[1,2-b]pyridazine] | 100 to 1000 | – | – | –
100 to 1000 | 100 to 1000 | 100 to 1000 | Cc1cn2nc(-c3ccc4nn(C5CCNCC5)cc4c3)cc(C)c2n1 [Compound 192, 2,8-dimethyl-6-[2-(4-piperidyl)indazol-5-yl]imidazo[1,2-b]pyridazine] | 100 to 1000 | – | – | –
1000 to 10000 | 1000 to 10000 | 1000 to 10000 | Cc1nc2c(C)c(O)c(-c3cc(F)c4nn(C5CCNCC5)cc4c3)cc2o1 [Compound 123, 6-[7-fluoro-2-(4-piperidyl)indazol-5-yl]-2,4-dimethyl-1,3-benzoxazol-5-ol] | 1000 to 10000 | – | – | –
